Laboratory results taken from US9250249B2, “Autophagy and phospholipidosis pathway assays” (Enzo Biochem, Inc., priority 2008, dated 2016).
Where two headings read alike, the source gives them in different places.

What was measured:
U2OS cells [1] = experiment: Cell number per well by Hoechst 33342 fluorescence (generalized compound toxicity); details: for Relative Hoechst Stain (intensity of Hoechst 33342 fluorescence of treated cells compared to the untreated control; number of cells remaining): 18 hours, single concentration per compound; for generalized cellular toxicity (loss of cells / decrease in Hoechst 33342 signal): greater than 30% decrease in cell number flagged as toxic
Experimental: (§2) Fluorescence intensity of the cells cultured on the 96-well plates was measured using a FLUOstar OPTIMA Multifunction Microplate Reader (BMG LabTech, Offenburg, Germany). […] Fluorescence intensity was expressed as percentage of the vehicle control value.
(§3) In the preliminary screen, test agents were employed at a single dose in an effort to identify any potential lysosome-modifying agents.

U2OS cells [2] = experiment: Fluorescence microplate-based lysosomal perturbation assay (Dye 1 fluorescence), incl. ICCB library screen; details: for Relative Lyso Stain (intensity of Dye 1 fluorescence of treated cells compared to the untreated control): 18 hours, single concentration per compound; for vacuolation / expansion of lysosomal compartment detected by Dye 1 assay: Dye 1 stained post drug incubation; for hit call in ICCB library screen (Dye 1 accumulation): ICCB known bioactives library screen
Experimental: U2OS human osteosarcoma cells were maintained in McCoy's 5a modified medium supplemented with 10% FBS and 100 units/ml penicillin/streptomycin (Invitrogen, Carlsbad, Calif.) in a humidified 37° C., 5% CO2 environment. Cells were allowed to proliferate on glass slides or were seeded into 96-well plates at a density of 2×10^4 cells/well and allowed to attach overnight. The cells were plated such that at the end of the experiment, they reached about 90% confluency.
In order to increase throughput and reduce handling time, the fluorescence microscopy-based lysosomal perturbation assay was scaled up to a 96-well microplate plate assay format and analyzed using a fluorescence microplate reader.
as §2, §3

U2OS cells [3] = experiment: Multiplexed CF-PE / Dye 1 / Hoechst 33342 microplate assay distinguishing phospholipidosis from autophagy pathway inhibition; assay type: cell-based, human; details: 24 h with CF-PE medium and test compound; for green signal (CF-PE) relative to vehicle-treated controls: ex 492 nm, em 517 nm; for red signal (Dye 1) relative to vehicle-treated controls: then Dye 1 15 min
Experimental: For example, CF-PE was suspended in ethanol and diluted in the cell culture medium (McCoy's 5a modified medium, as described in Example 3) to give a solution (CF-PE medium) with final concentration of 50 μM (0.46% ethanol). […] medium was then sonicated and filtered through a […] filter. The prepared was then applied to U2OS cells growing in a 96-well microplate. After an equilibration period of 24 h, the cell culture medium was replaced with CF-PE medium with or without each test compound, and the cells were incubated at 37° C. for an additional 24 h. After incubation, the cells were rinsed with medium and further incubated with the same medium containing Dye 1 and Hoechst 33342 dye for an additional 15 min at 37° C. in 5% CO2 atmosphere.
Fluorescence signal was determined using a standard microplate reader, as described in example 4, except that CF-PE was additionally read at an excitation wavelength of 492 nm and an emission wavelength of 517 nm. […] Generalized cytotoxicity is evident as a substantial decrease in blue signal (≧30%) relative to vehicle-treated control cells.

U2OS cells [4] = experiment: Lipid-Tox fluorescent phospholipid analog-based phospholipidosis assay; assay type: cell-based, human; details: 24 hours co-incubation with Lipid-Tox dye and drug
Experimental: Many assays of phospholipidosis, including the Lipid-Tox assay (Invitrogen, Carlsbad, Calif.), are based upon co-incubating cells with a fluorescent phospholipid analog for an extended period of time, along with the drug or test agent being evaluated, and then monitoring signal generation in fixed and permeabilized cells. Dye 1 is not a fluorescent phospholipid analog, but instead is a cationic amphiphilic fluorophore tracer. Cells are incubated with the drug or test agent in isolation and then briefly treated with the tracer dye before evaluation in live cells. […] Choloroquine, a prototypical phospholipidosis-inducing agent, and bafilomycin A, an agent well known to induce the accumulation of autophagosomes, were evaluated using both Dye 1 and Lipid-Tox dye-based assays (FIG. 3). […] Cells stained with Lipid-Tox dye (solid triangles dash-dot line) were incubated in the presence of the fluorescent lipid for 24 hours during treatment with the drugs.

[5] = pH dependence of Dye 1 fluorescence; assay type: physicochemical; details: pH range of 4.0 to 9.0
cultured cells = details: high micromolar concentrations; cited from earlier work
U2OS cells [6] = details: for Relative Hoechst Stain (intensity of Hoechst 33342 fluorescence of treated cells compared to the untreated control; number of cells remaining): human, 18 h
Experimental: as §2, §3

[7] = test system: U-2-OS human osteosarcoma cells; experiment: In vitro model of sphingolipidosis (Niemann-Pick mimic), microplate readout at 680 nm and 480 nm; assay type: cell-based
Excerpt: Stable cell lines derived from patients with Niemann-Pick disease can not be found in cell line repositories, such as American Type […] Collection (Manassas, Va.), and are not readily available to the research community. Consequently, an in vitro tissue culture model of sphingolipidosis was devised using 2R,3S,4E)-N-methyl-5-(4′pentylphenyl)-2-aminopent-4-ene-1,3-diol, designated SK1-I (BML-258), a potent, water soluble, isozyme-specific inhibitor of sphingosine kinase-1. […] U-2-OS human osteosarcoma cells were seeded at 22,500 cells/well, grown overnight, and then treated with a final concentration of 0, 2.5, 5, 10 or 20 μM of SK1-I for 18.5 hours. Next, the cells were briefly treated with compound 1 and the nuclear Hoechst 33342 dye, as described in Example 7. Fluorescence signal was read on a BioTek Synergy Mx microplate reader at excitation values of 340 and 540 nm and emission values of 480 and 680 nm. […] Fluorescence microscope-based examination of the wells confirmed that compound 1 staining of the cells was confined to the vacuolar structures. This in vitro model confirms the feasibility of using the assay for detecting aberrant accumulation of sphingolipids in cells, and by extension the feasibility of using the assay in monitoring inherited lysosomal storage diseases, such as Niemann-Pick disease.

HeLa cells = experiment: Fluorescence microscopy lysosomal perturbation assay with Dye 6; assay type: cell-based; details: chloroquine 120 μM for 6 hours, Dye 6 15 min
Experimental: (§1) HeLa cells were maintained in Dulbecco's modified Eagles medium supplemented with 10% FBS, 100 units/ml penicillin/streptomycin (Invitrogen, Carlsbad, Calif.) and MEM non essential amino acids in a humidified 37° C., 5% CO2 environment. Cells were allowed to proliferate on glass slides at a density of 2×10^4 cells/well and allowed to attach overnight. The cells were plated such that at the end of the experiment, they reached about 90% confluency.
The fluorescence-based lysosomal perturbation assay was established by first incubating cells cultivated on glass slides for 6 hours with chloroquine (120 μM final concentration), a well known phospholipidosis-inducing agent. Control cells were incubated with 0.1% (v/v) dimethyl sulfoxide (DMSO), which served as the vehicle control. Cells were then briefly (15 min) incubated with Dye 6 at room temperature. Following incubation, cells grown on glass microscope slides were covered with glass coverslips, sealed with nail polish and observed using an Olympus BX51 microscope. Images were acquired with a 40× objective lens. […] The untreated cells gave a low level of fluorescent staining.

[8] = test system: U2OS human osteosarcoma cells; experiment: Fluorescence microscopy-based lysosomal perturbation assay (Dye 1 staining); assay type: cell-based; details: U2OS cells pre-treated with drug (chloroquine 8-64 μM, 18 hours), Dye 1 15 min
Experimental: as §1, with “U2OS human osteosarcoma” for “HeLa”, “McCoy's 5a” for “Dulbecco's”, “modified” for “modified Eagles”, “FBS and” for “FBS,”, “Calif.)” for “Calif.) and MEM non essential amino acids”, “slides or were seeded into 96-well plates” for “slides”
The fluorescence-based lysosomal perturbation assay was established by first incubating cells cultivated on glass slides for 4-24 hours with chloroquine (8-64 μM final concentration), a well known phospholipidosis-inducing agent. Control cells were incubated with 0.1% (v/v) dimethyl sulfoxide (DMSO), which served as the vehicle control. Cells were then briefly (15 min) incubated with a combination of Dye 1 and Hoechst 33342 dye. Following incubation, cells grown on glass microscope slides were covered with glass coverslips, sealed with nail polish and observed using an inverted Axiovert 200M microscope (Carl Zeiss, Inc., Oberkochen, Germany). Images were acquired with a 63× objective lens (Zeiss).
Cells were subsequently stained with Dye 1 for 15 minutes. Nuclei were counter-stained with Hoechst 33342 dye. In FIG. 1, control U2OS cells are shown in (A), cells pre-treated for 18 hours with 8 μM chloroquine in (B), cells pre-treated for 18 hours with 16 μM chloroquine in (C) and cells pre-treated for 18 hours with 64 μM chloroquine in (D). This staining pattern was also consistently observed for other drugs that are known to induce phospholipidosis, such as chlorpromazine, fluoxetine, pimozide and verapamil (further described in Example 4). […] The ability of Dye 1 to detect vacuole accumulation in the described in vitro cell culture model mimicking Fabry disease strongly supports the present invention and its suitability for the detection of genetically derived lysosomal storage diseases.

[9] = Homo sapiens, 18 h, read-out: EC50 (Dye 1-based assay)

CO/C1=C\C(C)=C\[C@@H](C)[C@@H](O)[C@@H](C)C/C(C)=C/C=C/[C@H](OC)[C@@H]([C@@H](C)[C@@H](O)[C@H](C)[C@@]2(O)C[C@@H](O)[C@H](C)[C@@H](C(C)C)O2)OC1=O [Bafilomycin A1]
Relative Hoechst Stain (intensity of Hoechst 33342 fluorescence of treated cells compared to the untreated control; number of cells remaining) (U2OS cells [1]): 58% | generalized cellular toxicity (loss of cells / decrease in Hoechst 33342 signal) (U2OS cells [1]): cytotoxic | Relative Lyso Stain (intensity of Dye 1 fluorescence of treated cells compared to the untreated control) (U2OS cells [2]): 176% | vacuolation / expansion of lysosomal compartment detected by Dye 1 assay (U2OS cells [2]): increase vacuole number and volume | vacuolation / expansion of lysosomal compartment detected by Dye 1 assay (U2OS cells [2]; listed as bafilomycin A): increased vacuolation | EC50 (U2OS cells [2]; read-out: calculated EC50 value in Dye 1 based assay, 24 hours treatment, Dye 1 15 minutes post drug): 0.003 µM | green signal (CF-PE) relative to vehicle-treated controls (U2OS cells [3]): low green signal | red signal (Dye 1) relative to vehicle-treated controls (U2OS cells [3]): increased red signal | vacuolation / expansion of lysosomal compartment detected by Lipid-Tox assay (U2OS cells [4]): only Dye 1 identified the increased vacuolation

CN(C)CCNc1c(F)c(F)c(NCCN(C)C)c2c1C(=O)c1c(O)ccc(O)c1C2=O [Dye 1, 1,4-bis(2-(dimethylamino)ethylamino)-2,3-difluoro-5,8-dihydroxyanthracene-9,10-dione]
fluorescence emission intensity and wavelength maximum versus pH [5]: not significantly altered

CN(C)CCCn1cc(C2=C(c3c[nH]c4ccccc34)C(=O)NC2=O)c2ccccc21 [GF-109203X]
Relative Hoechst Stain (intensity of Hoechst 33342 fluorescence of treated cells compared to the untreated control; number of cells remaining) (U2OS cells [1]): 87% | Relative Lyso Stain (intensity of Dye 1 fluorescence of treated cells compared to the untreated control) (U2OS cells [2]): 197%

CC(C)NCC(O)COc1cccc2ccccc12 (stereo not drawn) [Propranolol (S-), Propranolol]
time to half maximum uptake (cultured cells): 4 to 10 min | time to steady state of cellular uptake (cultured cells): 40 to 60 min

CCCCOc1cc(CC2CNC(=O)N2)ccc1OC (stereo not drawn) [Ro 20-1724]
Relative Lyso Stain (intensity of Dye 1 fluorescence of treated cells compared to the untreated control) (U2OS cells [2]): 190% | Relative Hoechst Stain (intensity of Hoechst 33342 fluorescence of treated cells compared to the untreated control; number of cells remaining) (U2OS cells [6]): 53%

Cn1cc(C2=C(c3cn(CCCSC(=N)N)c4ccccc34)C(=O)NC2=O)c2ccccc21 [Ro 31-8220]
Relative Hoechst Stain (intensity of Hoechst 33342 fluorescence of treated cells compared to the untreated control; number of cells remaining) (U2OS cells [1]): 89% | Relative Lyso Stain (intensity of Dye 1 fluorescence of treated cells compared to the untreated control) (U2OS cells [2]): 146% | hit call in ICCB library screen (Dye 1 accumulation) (U2OS cells [2]): positive hit

CC(=O)c1c(O)c(C)c(O)c(Cc2c(O)c3c(c(C(=O)/C=C/c4ccccc4)c2O)OC(C)(C)C=C3)c1O [Rottlerin]
Relative Hoechst Stain (intensity of Hoechst 33342 fluorescence of treated cells compared to the untreated control; number of cells remaining) (U2OS cells [1]): 34% | generalized cellular toxicity (loss of cells / decrease in Hoechst 33342 signal) (U2OS cells [1]): generally cytotoxic | generalized cellular toxicity (loss of cells / decrease in Hoechst 33342 signal) (U2OS cells [1]; listed as rottlerin): significant toxicity | Relative Lyso Stain (intensity of Dye 1 fluorescence of treated cells compared to the untreated control) (U2OS cells [2]): 187% | hit call in ICCB library screen (Dye 1 accumulation) (U2OS cells [2]): false positive hit

NC(=O)c1ccc(-c2nc(-c3ccc4c(c3)OCO4)c(-c3ccccn3)[nH]2)cc1 [SB-431542]
Relative Lyso Stain (intensity of Dye 1 fluorescence of treated cells compared to the untreated control) (U2OS cells [2]): 154% | hit call in ICCB library screen (Dye 1 accumulation) (U2OS cells [2]): positive hits | Relative Hoechst Stain (intensity of Hoechst 33342 fluorescence of treated cells compared to the untreated control; number of cells remaining) (U2OS cells [6]): 101%

CCCCCc1ccc(/C=C/[C@H](O)[C@@H](CO)NC)cc1 [SK1-I]
emission values at 680 nm (accumulation of sphingolipids within the vacuolar compartment) ([7]; U-2-OS, 0, 2.5, 5, 10 or 20 μM for 18.5 hours): Dose-dependent increases | cell viability (480 nm emission intensity from Hoechst dye) ([7]; U-2-OS, 0-20 μM for 18.5 hours): Cell viability was maintained under all treatment conditions

CC(C)(C)c1cc(C=C(C#N)C#N)cc(C(C)(C)C)c1O [Tyrphostin 9]
Relative Hoechst Stain (intensity of Hoechst 33342 fluorescence of treated cells compared to the untreated control; number of cells remaining) (U2OS cells [1]): 31% | Relative Lyso Stain (intensity of Dye 1 fluorescence of treated cells compared to the untreated control) (U2OS cells [2]): 200%

CCN(CC)CCCC(C)Nc1ccnc2cc(Cl)ccc12 (stereo not drawn) [chloroquine]
fluorescence intensity of lysosomal staining with Dye 6 (HeLa cells): increase in fluorescence intensity of lysosomal staining | vacuolation / expansion of lysosomal compartment detected by Dye 1 assay (U2OS cells [2]): induced an expansion in the lysosomal compartment | EC50 (U2OS cells [2]; [9]): 15 µM | green signal (CF-PE) relative to vehicle-treated controls (U2OS cells [3]): increased green and red signal | red signal (Dye 1) relative to vehicle-treated controls (U2OS cells [3]): increased green and red signal | punctate pattern of cytoplasmic staining / levels of Dye 1 in the cells [8]: increased in a dose-dependent manner | vacuolation / expansion of lysosomal compartment detected by Lipid-Tox assay (U2OS cells [4]): induced an expansion in the lysosomal compartment

CN(C)CCCN1c2ccccc2Sc2ccc(Cl)cc21 [chlorpromazine]
EC50 (U2OS cells [2]; [9]): 6 µM | punctate pattern of cytoplasmic staining / levels of Dye 1 in the cells [8]: increased in a dose-dependent manner

CNCCC(Oc1ccc(C(F)(F)F)cc1)c1ccccc1 (stereo not drawn) [fluoxetine]
generalized cellular toxicity (loss of cells / decrease in Hoechst 33342 signal) (U2OS cells [6]): toxic doses | punctate pattern of cytoplasmic staining / levels of Dye 1 in the cells [8]: increased in a dose-dependent manner

O=c1[nH]c2ccccc2n1C1CCN(CCCC(c2ccc(F)cc2)c2ccc(F)cc2)CC1 [pimozide]
generalized cellular toxicity (loss of cells / decrease in Hoechst 33342 signal) (U2OS cells [6]): toxic doses

COc1ccc(CCN(C)CCCC(C#N)(c2ccc(OC)c(OC)c2)C(C)C)cc1OC (stereo not drawn) [verapamil]
EC50 (U2OS cells [2]; [9]): 30 µM | punctate pattern of cytoplasmic staining / levels of Dye 1 in the cells [8]: increased in a dose-dependent manner
